Data on two compounds can be found in US4238507A, “Pharmacological compound with immunopotentiating activity and production and uses thereof” (Zaidan Hojin Biseibutsu Kagaku Kenkyu Kai, priority 1979, dated 1980).

One series has as its system alkaline phosphatase. To be noted: literature; cited from earlier work.
Series [1] in a line: acute toxicity (LD50), intraperitoneal injection in mice. To be noted: mouse, in vivo, ip; intraperitoneally injected into mice.
The nature of series [2]: stability compared with forphenicine. It counts as physicochemical. To be noted: relative to forphenicine.
In series [3] the test system is cellular immunity (cell-mediated immunity). The series is described as follows: Delayed-Type Hypersensitivity (D.T.H.) footpad swelling, effect on cellular immunity in mice immunized with sheep red blood cells. In kind it is in vivo, ddY mouse. To be noted: for Degree of swelling: left hind footpad, 24 hours after elicitation. The procedure:
In order to evaluate the immunopotentiating properties of the compound (I) of this invention, the effect of the compound (I) on cellular immunity (cell-mediated immunity) was tested according to a known Delayed-Type Hypersensitivity (D.T.H.) technique (see P. H. Lagrange, G. B. Mackaness and T. E. Mille, "J. Exp. Med", 139, 1529-1539 (1974)) using mice immunized with sheep red blood cells as antigen.
Thus, 10^8 sheep red blood cells (SRBC) suspended in 0.05 ml of physiological saline were subcutaneously injected at the time of immunization to the right hind footpad of each dd/.UPSILON. mouse under test (female, 6 weeks old) to establish delayed-type hypersensitivity. Simultaneously with the immunization, a varying dose of the compound (I) was intraperitoneally injected or orally administered into each test mouse. Four days later, 10^8 sheep red blood cells were subcutantaneously injected into the left hind footpad of each test mouse for elicitation of the D.T.H. response. 24 hours after the elicitating injection, the thickness of the left hind footpad was measured to evaluate the degree of the swelling in the footpad. The degree of the swelling serves to estimate the cellular immunity involved. In the Table, the swelling degree is expressed in terms of the values calculated by the equation: [formula]

A further series deals with immune response. Kind of series: immunopotentiating activity upon oral administration compared with forphenicine. In kind it is in vivo. Particulars: relative to forphenicine.

A value given as a limit tells only on which side of the number the result lay.

`NC(C(=O)O)c1ccc(C=O)c(O)c1` (stereo not shown) [Forphenicine, forphenicine]: the “inhibition of alkaline phosphatase” value in the series with alkaline phosphatase was “strong inhibitor of alkaline phosphatase”.
The term LD50 denotes the dose at which mortality reaches 50%. A higher LD50 goes with a less toxic substance. For `NC(C(=O)O)c1ccc(CO)c(O)c1` (stereo not shown) [compound (I), forphenicinol], the LD50 in series [1] was above 500 mg/kg. Besides, the stability result in series [2] is recorded as “more stable than forphenicine”. The Degree of swelling in series [3] (i.p. injection, 0.1 μg/mouse) was 183; in series [3] (i.p. injection, 1 μg/mouse), 159; in series [3] (i.p. injection, 10 μg/mouse), 148; in series [3] (i.p. injection, 100 μg/mouse), 131; in series [3] (oral administration, 0.1 μg/mouse), 139; in series [3] (oral administration, 1 μg/mouse) it was 133. For the same compound, the Degree of swelling in series [3] (oral administration, 10 μg/mouse) amounted to 191; in series [3] (oral administration, 100 μg/mouse), 166. In addition, the “potentiating effect on establishment of cellular immunity” value in series [3] (intraperitoneal injection or oral administration, wide range of dosages) is recorded as “intensive potentiating effect”. Moreover, in the series on immune response, the “activity upon oral administration” value was “higher activity than forphenicine”.
